Structures can show the parent of a compound that is named as a salt.
Biological target: Glycogen synthase kinase-3 beta (Homo sapiens, UniProt P49841)
Assay: GSK3beta kinase inhibitor potency, dose response, biochemical, luminescence, cell-free homogeneous, retest (AID 434954)

Sequence of Glycogen synthase kinase-3 beta (P49841 whole entry): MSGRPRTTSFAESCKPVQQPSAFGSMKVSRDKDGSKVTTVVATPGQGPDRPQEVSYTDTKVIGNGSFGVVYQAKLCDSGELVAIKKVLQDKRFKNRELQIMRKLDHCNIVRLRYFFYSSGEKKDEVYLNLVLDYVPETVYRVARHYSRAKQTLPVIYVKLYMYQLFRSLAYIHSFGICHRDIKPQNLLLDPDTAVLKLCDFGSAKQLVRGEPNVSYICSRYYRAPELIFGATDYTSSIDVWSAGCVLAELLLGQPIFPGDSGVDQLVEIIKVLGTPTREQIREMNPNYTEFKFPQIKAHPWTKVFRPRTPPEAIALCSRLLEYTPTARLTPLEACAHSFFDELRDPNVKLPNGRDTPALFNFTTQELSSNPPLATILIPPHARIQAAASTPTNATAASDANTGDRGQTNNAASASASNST

EC50	SMILES
> 300 µM	COc1ccc(Nc2nc(NCc3ccco3)nc(N)c2[N+](=O)[O-])cc1 [2-N-(furan-2-ylmethyl)-4-N-(4-methoxyphenyl)-5-nitropyrimidine-2,4,6-triamine]
> 300 µM	Nc1nc(NCc2ccccc2)nc(Nc2ccc(F)cc2)c1[N+](=O)[O-] [2-N-benzyl-4-N-(4-fluorophenyl)-5-nitropyrimidine-2,4,6-triamine]
> 300 µM	O=C(CN1C(=O)c2ccccc2C1=O)Nc1ccccc1F [2-[1,3-bis(oxidanylidene)isoindol-2-yl]-N-(2-fluorophenyl)ethanamide]
> 300 µM	Cc1ccccc1NC(=O)CN1C(=O)c2ccccc2C1=O [2-[1,3-bis(oxidanylidene)isoindol-2-yl]-N-(2-methylphenyl)ethanamide]
> 300 µM	COCCn1c(SCC(=O)Nc2cccc(S(N)(=O)=O)c2)nc2ccccc21 [2-[1-(2-methoxyethyl)benzimidazol-2-yl]sulfanyl-N-(3-sulfamoylphenyl)ethanamide]
> 300 µM	CNC(=O)NC(=O)CSc1nc2ccccc2n1CCOC [2-[1-(2-methoxyethyl)benzimidazol-2-yl]sulfanyl-N-(methylcarbamoyl)ethanamide]
> 300 µM	COCCn1c(SCC(=O)NC(=O)NC(C)C)nc2ccccc21 [2-[1-(2-methoxyethyl)benzimidazol-2-yl]sulfanyl-N-(propan-2-ylcarbamoyl)ethanamide]
> 300 µM	NS(=O)(=O)c1ccc(NC(=O)CN2C(=O)CCC2=O)cc1 [2-[2,5-bis(oxidanylidene)pyrrolidin-1-yl]-N-(4-sulfamoylphenyl)ethanamide]
> 300 µM	Cc1cc(C)c(C#N)c(SCC(=O)c2ccc(Cl)cc2Cl)n1 [2-[2-(2,4-dichlorophenyl)-2-oxidanylidene-ethyl]sulfanyl-4,6-dimethyl-pyridine-3-carbonitrile]
15.9 µM	Cc1[nH][nH]c(=O)c1N=Nc1ccccc1C#N [2-[2-(3-methyl-5-oxopyrazol-4-yl)hydrazinyl]benzonitrile]
> 300 µM	O=C(O)COCC(=O)N1CCN(C(c2ccccc2)c2ccccc2)CC1 [2-[2-(4-benzhydrylpiperazino)-2-oxoethoxy]acetic acid]
26 µM	CCOC(=O)c1sc(NC(=O)CSc2nnc(C(C)C)n2C)nc1C [2-[2-(5-Isopropyl-4-methyl-4H-[1,2,4]triazol-3-ylsulfanyl)-acetylamino]-4-methyl-thiazole-5-carboxylic acid ethyl ester]
> 300 µM	COc1cccc2c1cc1c(=O)n(CC(=O)N3CCCCCC3)nc(C)n12 [2-[2-(azepan-1-yl)-2-oxidanylidene-ethyl]-9-methoxy-4-methyl-[1,2,4]triazino[4,5-a]indol-1-one]
> 300 µM	CCN1CCc2c(sc(NC(=O)CN3C(=O)c4ccccc4C3=O)c2C(N)=O)C1 [2-[2-[1,3-bis(oxidanylidene)isoindol-2-yl]ethanoylamino]-6-ethyl-5,7-dihydro-4H-thieno[2,3-c]pyridine-3-carboxamide;hydrochloride]
30.3 µM	CCC1(C)NC(=O)N(CC(=O)Nc2sc3c(c2C(N)=O)CCC3)C1=O (stereo not given) [2-[2-[4-ethyl-4-methyl-2,5-bis(oxidanylidene)imidazolidin-1-yl]ethanoylamino]-5,6-dihydro-4H-cyclopenta[b]thiophene-3-carboxamide]
10.7 µM	Nc1nc(NCCOCCO)nc(Nc2cccc(F)c2)c1[N+](=O)[O-] [2-[2-[[4-azanyl-6-[(3-fluorophenyl)amino]-5-nitro-pyrimidin-2-yl]amino]ethoxy]ethanol]
> 300 µM	O=C1C[C@@H](c2ccc(O)c(O)c2)Oc2cc(O)cc(O)c21 [2-[3,4-bis(oxidanyl)phenyl]-5,7-bis(oxidanyl)-2,3-dihydrochromen-4-one]
> 300 µM	COc1ccc(Nc2nc(Nc3ccc(OC)cc3)nc(-n3[nH]c(=O)c(C)c3C)n2)cc1 [2-[4,6-bis(4-methoxyanilino)-1,3,5-triazin-2-yl]-3,4-dimethyl-1H-pyrazol-5-one]
> 300 µM	Cc1ccc(C)c(S(=O)(=O)N2CCN(C(C(=O)Nc3ccc(F)cc3)c3ccccc3)CC2)c1 (stereo not given) [2-[4-(2,5-dimethylphenyl)sulfonyl-1-piperazinyl]-N-(4-fluorophenyl)-2-phenylacetamide]
> 300 µM	CC1CN(C(=O)CCCN2C(=O)c3ccccc3C2=O)CC(C)O1 (stereo not given) [2-[4-(2,6-dimethylmorpholin-4-yl)-4-oxobutyl]isoindole-1,3-dione]
> 300 µM	O=C(CN1CCN(S(=O)(=O)c2ccccc2)CC1)Nc1ccc([N+](=O)[O-])cc1 [2-[4-(benzenesulfonyl)-1-piperazinyl]-N-(4-nitrophenyl)acetamide]
> 300 µM	O=C(O)COc1ccc(C(=O)c2ccccc2)cc1 [2-[4-(phenylcarbonyl)phenoxy]ethanoic acid]
> 300 µM	O=C(CSc1nnc(COc2ccc(Cl)cc2)o1)N1c2ccccc2CCc2ccccc21 [2-[5-(4-Chloro-phenoxymethyl)-[1,3,4]oxadiazol-2-ylsulfanyl]-1-(10,11-dihydro-dibenzo[b,f]azepin-5-yl)-ethanone]
15.6 µM	Nc1nc(Nc2ccccc2F)nc(NCCO)c1[N+](=O)[O-] [2-[6-Amino-2-(2-fluoro-phenylamino)-5-nitro-pyrimidin-4-ylamino]-ethanol]
2.6 µM	COc1ccc(Nc2nc(N)c([N+](=O)[O-])c(NCCO)n2)cc1 [2-[6-Amino-2-(4-methoxy-phenylamino)-5-nitro-pyrimidin-4-ylamino]-ethanol]

EC50	SMILES
6.31 µM	Clc1ccc(CSc2nnc(-c3ccncc3)o2)c(Cl)c1 [2-[(2,4-dichlorobenzyl)thio]-5-(4-pyridyl)-1,3,4-oxadiazole]
> 300 µM	O=C(O)c1ccccc1Nc1ccccc1C(=O)O [2-[(2-carboxyphenyl)amino]benzoic acid]
> 300 µM	O=C(O)c1ccccc1Nc1ccnc(Cl)n1 [2-[(2-chloro-4-pyrimidinyl)amino]benzoic acid]
9.25 µM	Fc1cccc(Cl)c1CSc1nnc(-c2ccncc2)o1 [2-[(2-chloro-6-fluorophenyl)methylthio]-5-pyridin-4-yl-1,3,4-oxadiazole]
> 300 µM	Cc1ccccc1-c1nnc(SCc2ccccc2F)o1 [2-[(2-fluorobenzyl)thio]-5-(2-methylphenyl)-1,3,4-oxadiazole]
> 300 µM	Cc1ccc(-c2nnc(SCc3ccccc3F)o2)cc1 [2-[(2-fluorobenzyl)thio]-5-(4-methylphenyl)-1,3,4-oxadiazole]
2.92 µM	NNc1nccc(Nc2ccccc2C(=O)O)n1 [2-[(2-hydrazinyl-4-pyrimidinyl)amino]benzoic acid]
22.1 µM	Cc1ccccc1CSc1nnc(-c2ccncc2)o1 [2-[(2-methylphenyl)methylsulfanyl]-5-pyridin-4-yl-1,3,4-oxadiazole]
> 300 µM	Cc1ccccc1CSc1nc2n(n1)C(c1cccs1)C1C(=O)CCCC1=N2 (stereo not given) [2-[(2-methylphenyl)methylsulfanyl]-9-thiophen-2-yl-5,6,7,9-tetrahydro-1H-[1,2,4]triazolo[5,1-b]quinazolin-8-one]
> 300 µM	N#CC(C#N)=Cc1cc2ccccc2nc1N1CCOCC1 [2-[(2-morpholin-4-ylquinolin-3-yl)methylidene]propanedinitrile]
> 300 µM	O=C(O)c1ccccc1NC(=O)c1ccccc1Nc1ccccc1 [2-[(2-phenylazanylphenyl)carbonylamino]benzoic acid]
56.6 µM	CC(=O)c1coc2ccc(OCC(=O)O)cc12 [2-[(3-acetyl-5-benzofuranyl)oxy]acetic acid]
> 300 µM	CC1CCN(C(=O)CSc2nc(N)c3c4c(sc3n2)CN(C)CC4)CC1 [2-[(4-azanyl-7-methyl-6,8-dihydro-5H-pyrido[4,5]thieno[1,2-c]pyrimidin-2-yl)sulfanyl]-1-(4-methylpiperidin-1-yl)ethanone]
25.9 µM	Clc1ccc(CSc2nnc(-c3ccncc3)o2)cc1 [2-[(4-chlorobenzyl)thio]-5-(4-pyridyl)-1,3,4-oxadiazole]
> 300 µM	CC1CCc2c(sc(Nc3nc4c(F)cccc4s3)c2C(N)=O)C1 (stereo not given) [2-[(4-fluoranyl-1,3-benzothiazol-2-yl)amino]-6-methyl-4,5,6,7-tetrahydro-1-benzothiophene-3-carboxamide]
> 300 µM	Cc1ccccc1-c1nnc(SCc2ccc(F)cc2)o1 [2-[(4-fluorophenyl)methylsulfanyl]-5-(2-methylphenyl)-1,3,4-oxadiazole]
> 300 µM	Fc1ccc(CSc2nnc(-c3cccnc3)o2)cc1 [2-[(4-fluorophenyl)methylthio]-5-(3-pyridinyl)-1,3,4-oxadiazole]
31.4 µM	N=C(N)N/N=C1/C(=O)Nc2ccc(Br)cc21 [2-[(5-bromo-2-oxo-3-indolyl)amino]guanidine;hydrochloride]
> 300 µM	Cc1cc(NC(=O)CSc2nc(O)c(C#N)c(-c3ccccc3)n2)no1 [2-[(5-cyano-4-oxidanylidene-6-phenyl-1H-pyrimidin-2-yl)sulfanyl]-N-(5-methyl-1,2-oxazol-3-yl)ethanamide]
> 300 µM	N#Cc1c(O)nc(SCC(=O)Nc2nnc(C(F)(F)F)s2)nc1-c1ccccc1 [2-[(5-cyano-4-oxo-6-phenyl-1H-pyrimidin-2-yl)sulfanyl]-N-[5-(trifluoromethyl)-1,3,4-thiadiazol-2-yl]acetamide]
> 300 µM	N#Cc1c(-c2ccccc2)nc(SCC(=O)NC2CCCCC2)[nH]c1=O [2-[(5-cyano-4-oxo-6-phenyl-1H-pyrimidin-2-yl)sulfanyl]-N-cyclohexylacetamide]
2.05 µM	CNC(=O)NC(=O)CSc1nc(-c2cccs2)c(C#N)c(=O)[nH]1 [2-[(5-cyano-4-oxo-6-thiophen-2-yl-1H-pyrimidin-2-yl)thio]-N-(methylcarbamoyl)acetamide]
> 300 µM	N#Cc1c(-c2ccccc2)nc(SCC(=O)N(c2ccccc2)c2ccccc2)[nH]c1=O [2-[(5-cyano-6-oxo-4-phenyl-1,6-dihydro-2-pyrimidinyl)thio]-N,N-diphenylacetamide]
> 300 µM	CCn1c(SCC(=O)Nc2nccs2)nnc1C1CC1 [2-[(5-cyclopropyl-4-ethyl-1,2,4-triazol-3-yl)sulfanyl]-N-(1,3-thiazol-2-yl)ethanamide]
> 300 µM	CCn1c(SCC(=O)Nc2ccc(F)cc2)nnc1C1CC1 [2-[(5-cyclopropyl-4-ethyl-1,2,4-triazol-3-yl)sulfanyl]-N-(4-fluorophenyl)ethanamide]
